Data: ChEMBL document CHEMBL5532714, “Discovery of Kebanmycins with Antibacterial and Cytotoxic Activities from the Mangrove-Derived Streptomyces sp. SCSIO 40068” (J Nat Prod, 2024)
pIC50: −log10 of the molar value. In brackets after ≈: the same amount, converted by molar mass. Where a name gives a salt, the structure may show the parent alone.

Experiments:
Acinetobacter baumannii = test: Antibacterial activity against Acinetobacter baumannii 19606 assessed as bacterial growth inhibition incubated for 16 hrs by broth microdilution method; format: functional
Vibrio alginolyticus = test: Antibacterial activity against Vibrio alginolyticus ATCC 13214 assessed as bacterial growth inhibition incubated for 16 hrs by broth microdilution method; format: functional
Staphylococcus aureus [1] = test: Antibacterial activity against Staphylococcus aureus ATCC 29213 assessed as bacterial growth inhibition incubated for 16 hrs by broth microdilution method; format: functional
Staphylococcus aureus [2] = test: Antibacterial activity against methicillin-resistant Staphylococcus aureus 991 assessed as bacterial growth inhibition incubated for 16 hrs by broth microdilution method; format: functional
Staphylococcus aureus [3] = test: Antibacterial activity against methicillin-resistant Staphylococcus aureus 1862 assessed as bacterial growth inhibition incubated for 16 hrs by broth microdilution method; format: functional
HepG2 = test: (§1) Cytotoxicity against human HepG2 cells assessed as cell growth inhibition; format: toxicity, cell-based; details: hepg2
Staphylococcus aureus [4] = test: Antibacterial activity against methicillin-resistant Staphylococcus aureus 669 assessed as bacterial growth inhibition incubated for 16 hrs by broth microdilution method; format: functional
MCF7 = test: (§2) Cytotoxicity against human MCF7 cells assessed as cell growth inhibition; format: toxicity, cell-based; details: mcf7
Bacillus subtilis = test: Antibacterial activity against Bacillus subtilis 1064 assessed as bacterial growth inhibition incubated for 16 hrs by broth microdilution method; format: functional
Staphylococcus aureus [5] = test: Antibacterial activity against methicillin-resistant Staphylococcus aureus shhs-A1 assessed as bacterial growth inhibition incubated for 16 hrs by broth microdilution method; format: functional
[6] = as §1; format: toxicity, cell-based; details: HepG2 cells
[7] = as §2; format: toxicity, cell-based; details: MCF7 cells

Structure (SMILES) | MIC (Acinetobacter baumannii) [µg/mL] | MIC (Vibrio alginolyticus) [µg/mL] | MIC (Staphylococcus aureus [1]) [µg/mL] | MIC (Staphylococcus aureus [2]) [µg/mL] | MIC (Staphylococcus aureus [3]) [µg/mL] | Activity (HepG2) | MIC (Staphylococcus aureus [4]) [µg/mL] | Activity (MCF7) | MIC (Bacillus subtilis) [µg/mL] | MIC (Staphylococcus aureus [5]) [µg/mL] | pIC50 [6] | pIC50 [7]
CCCC(=O)Cc1cc2c(c(O)c1C(=O)O)-c1cc3c(c(O)c1CC2)C(=O)c1c(O)cc(O)cc1C3=O | > 64 | > 64 | 32 (≈ 63.7 µM) | 16 (≈ 31.8 µM) | 16 (≈ 31.8 µM) | Non-Toxic | 16 (≈ 31.8 µM) | Non-Toxic | > 64 | 16 (≈ 31.8 µM) | – | –
CCC[C@@H]1Cc2cc3c(c(O)c2C(=O)O1)-c1c(c(OC)c2oc4ccc(O[C@H]5C[C@@H](O)[C@H](O[C@H]6C[C@@H](O)[C@H](O[C@H]7C[C@@H](OC)[C@H](O)[C@@H](C)O7)[C@@H](C)O6)[C@@H](C)O5)c(O)c4c(=O)c2c1O)[C@H](O)[C@H]3O | > 64 | > 64 | 2 (≈ 2.13 µM) | 1 (≈ 1.06 µM) | 1 (≈ 1.06 µM) | – | 2 (≈ 2.13 µM) | – | 0.125 (≈ 0.133 µM) | 2 (≈ 2.13 µM) | 5.10 | 5.39
CCC[C@@H]1Cc2cc3c(c(O)c2C(=O)O1)-c1c(c(OC)c2oc4ccc(O)c(O)c4c(=O)c2c1O)[C@H](O)[C@H]3O | 64 (≈ 119 µM) | 32 (≈ 59.6 µM) | 8 (≈ 14.9 µM) | 8 (≈ 14.9 µM) | 4 (≈ 7.46 µM) | – | 8 (≈ 14.9 µM) | – | 16 (≈ 29.8 µM) | 8 (≈ 14.9 µM) | 4.89 | 6.34
CCC[C@@H]1Cc2cc3c(c(O)c2C(=O)O1)-c1c(c(OC)c2oc4ccc(O[C@H]5C[C@@H](O)[C@H](O)[C@@H](C)O5)c(O)c4c(=O)c2c1O)[C@H](O)[C@H]3O | > 64 | > 64 | 0.5 (≈ 0.75 µM) | 2 (≈ 3 µM) | 1 (≈ 1.5 µM) | – | 2 (≈ 3 µM) | – | 4 (≈ 6 µM) | 0.5 (≈ 0.75 µM) | 4.51 | 6.12
CCC[C@@H]1Cc2cc3c(c(O)c2C(=O)O1)-c1c(c(OC)c2oc4ccc(O[C@H]5C[C@@H](O)[C@H](O[C@H]6C[C@@H](O)[C@H](O[C@H]7C[C@@H](O)[C@H](O)[C@@H](C)O7)[C@@H](C)O6)[C@@H](C)O5)c(O)c4c(=O)c2c1O)[C@H](O)[C@H]3O | > 64 | > 64 | 2 (≈ 2.16 µM) | 2 (≈ 2.16 µM) | 1 (≈ 1.08 µM) | – | 2 (≈ 2.16 µM) | – | 1 (≈ 1.08 µM) | 2 (≈ 2.16 µM) | 5.36 | 5.74
CN[C@H](CC(C)C)C(=O)N[C@H]1C(=O)N[C@@H](CC(N)=O)C(=O)N[C@H]2C(=O)N[C@H]3C(=O)N[C@H](C(=O)N[C@H](C(=O)O)c4cc(O)cc(O)c4-c4cc3ccc4O)[C@H](O)c3ccc(c(Cl)c3)Oc3cc2cc(c3O[C@@H]2O[C@H](CO)[C@@H](O)[C@H](O)[C@H]2O[C@H]2C[C@](C)(N)[C@H](O)[C@H](C)O2)Oc2ccc(cc2Cl)[C@H]1O [VANCOMYCIN] | – | – | – | – | – | – | – | – | 0.25 (≈ 0.173 µM) | – | – | –
COc1cccc2c1C(=O)c1c(O)c3c(c(O)c1C2=O)C[C@@](O)(C(=O)CO)C[C@@H]3O[C@H]1C[C@H](N)[C@H](O)[C@H](C)O1 [DOXORUBICIN HYDROCHLORIDE] | – | – | – | – | – | – | – | – | – | – | 5.51 | –
O=C(O)c1cn(C2CC2)c2cc(N3CCNCC3)c(F)cc2c1=O [CIPROFLOXACIN] | 0.125 (≈ 0.377 µM) | 0.125 (≈ 0.377 µM) | – | – | – | – | – | – | – | – | – | –
CCC[C@@H]1Cc2cc3c(c(O)c2C(=O)O1)-c1c(c(OC)c2oc4ccc(O[C@H]5C[C@@H](O)[C@H](O[C@H]6C[C@@H](O)[C@H](O[C@H]7C[C@@H](OC)[C@H](O)[C@@H](C)O7)[C@@H](C)O6)[C@@H](C)O5)c(O)c4c(=O)c2c1O)C[C@H]3O | > 64 | > 64 | 0.125 (≈ 0.135 µM) | 0.5 (≈ 0.541 µM) | 0.125 (≈ 0.135 µM) | – | 0.5 (≈ 0.541 µM) | – | > 64 | 0.125 (≈ 0.135 µM) | 6.60 | 6.92
